Each structure is given as a SMILES string.

A word on the IC50: it is the concentration at which inhibition is half-maximal.

In one assay the target is T1, rat CB-1 receptor (Rattus norvegicus, UniProt P20272).
T1 construct: The tissue obtained from the brain of SD rats was homogenized; from tissue; host or cells: brain of SD rats (membrane pellet of homogenate)
T1 sequence (P20272 whole entry): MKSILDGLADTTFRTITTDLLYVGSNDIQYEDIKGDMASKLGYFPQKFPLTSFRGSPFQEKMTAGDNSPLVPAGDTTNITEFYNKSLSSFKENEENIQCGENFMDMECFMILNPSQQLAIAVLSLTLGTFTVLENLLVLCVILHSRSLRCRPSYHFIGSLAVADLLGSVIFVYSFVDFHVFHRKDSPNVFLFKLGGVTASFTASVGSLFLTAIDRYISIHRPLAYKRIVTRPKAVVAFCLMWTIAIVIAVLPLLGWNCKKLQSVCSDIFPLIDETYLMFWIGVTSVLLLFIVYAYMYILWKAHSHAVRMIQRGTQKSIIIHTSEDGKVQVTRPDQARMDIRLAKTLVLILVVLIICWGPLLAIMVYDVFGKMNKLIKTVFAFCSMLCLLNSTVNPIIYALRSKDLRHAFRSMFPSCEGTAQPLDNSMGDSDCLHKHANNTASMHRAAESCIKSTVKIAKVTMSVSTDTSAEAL
In words: rat CB-1 receptor binding protocol with [3H]CP-55940.
Conditions: not given
Consider `CCc1c(-c2nnc(C3(c4ccc(OC)cc4)CC3)o2)nc(-c2ccc(Cl)cc2Cl)n1-c1ccc(Br)cc1` [Example 42, 2-(1-(4-Bromophenyl)-2-(2,4-dichlorophenyl)-5-ethyl-1H-imidazol-4-yl)-5-(1-(4-methoxyphenyl)cyclopropyl)-1,3,4-oxadiazole], for which the IC50 amounted to 0.0186 µM.
For the compound `CCc1c(-c2nnc(C3(c4ccc(C)cc4)CC3)o2)nc(-c2ccc(Cl)cc2Cl)n1-c1ccc(Br)cc1` [Example 43, 2-(1-(4-Bromophenyl)-2-(2,4-dichlorophenyl)-5-ethyl-1H-imidazol-4-yl)-5-(1-p-tolylcyclopropyl)-1,3,4-oxadiazole], the half-inhibitory concentration (IC50) was found to be 0.00838 µM.
Regarding `CCc1c(-c2nnc(C3(C(F)(F)F)CCC3)o2)nc(-c2ccccc2Cl)n1-c1ccc(Br)cc1` [Example 57, 2-(1-(4-Bromophenyl)-2-(2-chlorophenyl)-5-ethyl-1H-imidazol-4-yl)-5-(1-(trifluoromethyl)cyclobutyl)-1,3,4-oxadiazole], the concentration for half-maximal inhibition (IC50) came to 0.0134 µM.
For `CCc1c(-c2nnc(C3(c4ccccc4)CC3)o2)nc(-c2ccc(Cl)cc2Cl)n1-c1ccc(Br)cc1` [Example 27, 2-(1-(4-Bromophenyl)-2-(2,4-dichlorophenyl)-5-ethyl-1H-imidazol-4-yl)-5-(1-phenylcyclopropyl)-1,3,4-oxadiazole], the concentration for half-maximal inhibition (IC50) was 0.00914 µM.
For `Cc1c(-c2nnc(C(C)C)o2)nc(-c2ccc(Cl)cc2Cl)n1-c1ccc(Cl)cc1` [Example 9, 2-(1-(4-Chlorophenyl)-2-(2,4-dichlorophenyl)-5-methyl-1H-imidazol-4-yl)-5-isopropyl-1,3,4-oxadiazole], the half-inhibitory concentration (IC50) stood at 0.0258 µM.

The same assay, now with this note: [3H]CP-55940, brain tissue of SD rats, 30 °C for 60 min; read-out: IC50.
For the compound `CCc1c(-c2nnc(C3(c4ccc(OC)cc4)CC3)s2)nc(-c2ccc(Cl)cc2Cl)n1-c1ccc(Br)cc1` [Example 132, 2-(1-(4-Bromophenyl)-2-(2,4-dichlorophenyl)-5-ethyl-1H-imidazol-4-yl)-5-(1-(4-methoxyphenyl)cyclopropyl)-1,3,4-thiadiazole], the IC50 is 0.00921 µM.
With `CCc1c(-c2nnc(C3CCCC3)o2)nc(-c2ccc(Cl)cc2Cl)n1-c1ccc(Cl)cc1` [Example 13, 2-(1-(4-Chlorophenyl)-2-(2,4-dichlorophenyl)-5-ethyl-1H-imidazol-4-yl)-5-cyclopentyl-1,3,4-oxadiazole], the IC50 is 0.0258 µM.
For the compound `CCCc1c(-c2nnc(C3(c4ccc(Cl)cc4)CCC3)s2)nc(-c2ccc(Cl)cc2Cl)n1-c1ccc(Cl)cc1` [Example 128, 2-(1-(4-Chlorophenyl)-2-(2,4-dichlorophenyl)-5-propyl-1H-imidazol-4-yl)-5-(1-(4-chlorophenyl)cyclobutyl)-1,3,4-thiadiazole], the half-inhibitory concentration (IC50) is 0.0035 µM.
Same read-out and setting: under `Cc1c(-c2nnc(C(C)(C)C)o2)nc(-c2ccc(Cl)cc2Cl)n1-c1ccc(Cl)cc1` [Example 1, 2-tert-Butyl-5-(1-(4-chlorophenyl)-2-(2,4-dichlorophenyl)-5-methyl-1H-imidazol-4-yl)-1,3,4-oxadiazole] stands 0.0132 µM.
On to `CCCc1c(-c2nnc(C(C)(C)C)o2)nc(-c2ccc(Cl)cc2Cl)n1-c1ccc(Cl)cc1` [Example 35, 2-tert-Butyl-5-(1-(4-chlorophenyl)-2-(2,4-dichlorophenyl)-5-propyl-1H-imidazol-4-yl)-1,3,4-oxadiazole], for which the 50% inhibitory concentration (IC50) turned out to be 0.0189 µM.
Consider `CCCc1c(-c2nnc(C3CCCCC3)o2)nc(-c2ccc(Cl)cc2Cl)n1-c1ccc(Cl)cc1` [Example 39, 2-(1-(4-Chlorophenyl)-2-(2,4-dichlorophenyl)-5-propyl-1H-imidazol-4-yl)-5-cyclohexyl-1,3,4-oxadiazole], for which the half-maximal inhibitory concentration (IC50) is 0.0869 µM.
With `CCCc1c(-c2nnc(C3CCCCC3)s2)nc(-c2ccc(Cl)cc2Cl)n1-c1ccc(Br)cc1` [Example 120, 2-(1-(4-Bromophenyl)-2-(2,4-dichlorophenyl)-5-propyl-1H-imidazol-4-yl)-5-cyclohexyl-1,3,4-thiadiazole], the IC50 came to 0.0443 µM.
`CCC(CC)c1nnc(-c2nc(-c3ccc(Cl)cc3Cl)n(-c3ccc(Cl)cc3)c2C)o1` [Example 10, 2-(1-(4-Chlorophenyl)-2-(2,4-dichlorophenyl)-5-methyl-1H-imidazol-4-yl)-5-(pentan-3-yl)-1,3,4-oxadiazole]: the IC50 was determined as 0.0223 µM.
As to `CCc1c(-c2nnc(C(C)CC)s2)nc(-c2ccc(Cl)cc2Cl)n1-c1ccc(Cl)cc1` (stereo not shown) [Example 107, 2-sec-Butyl-5-(1-(4-chlorophenyl)-2-(2,4-dichlorophenyl)-5-ethyl-1H-imidazol-4-yl)-1,3,4-thiadiazole], the IC50 came to 0.00846 µM.
Take `CCCCc1cnc(-c2nc(-c3ccc(Cl)cc3Cl)n(-c3ccc(Cl)cc3)c2C)o1` [Example 182, 5-Butyl-2-(1-(4-chlorophenyl)-2-(2,4-dichlorophenyl)-5-methyl-1H-imidazol-4-yl)oxazole]: the half-inhibitory concentration (IC50) was determined as 0.0116 µM.
Consider `FC(F)(F)C1(c2nnc(-c3nc(-c4ccccc4Cl)n(-c4ccc(Br)cc4)c3Cn3cncn3)o2)CC1` [Example 79, 2-(5-((1H-1,2,4-Triazol-1-yl)methyl)-1-(4-bromophenyl)-2-(2-chlorophenyl)-1H-imidazol-4-yl)-5-(1-(trifluoromethyl)cyclopropyl)-1,3,4-oxadiazole], for which the IC50 is 0.00691 µM.
On to `CCCCC(C)c1nnc(-c2nc(-c3ccc(Cl)cc3Cl)n(-c3ccc(Cl)cc3)c2CC)o1` (stereo not shown) [Example 16, 2-(1-(4-Chlorophenyl)-2-(2,4-dichlorophenyl)-5-ethyl-1H-imidazol-4-yl)-5-(hexan-2-yl)-1,3,4-oxadiazole], for which the IC50 was found to be 0.0112 µM.
For the compound `CCCc1c(-c2nnc(C(C)(C)C)s2)nc(-c2ccc(Cl)cc2Cl)n1-c1ccc(Br)cc1` [Example 119, 2-(1-(4-Bromophenyl)-2-(2,4-dichlorophenyl)-5-propyl-1H-imidazol-4-yl)-5-tert-butyl-1,3,4-thiadiazole], the half-maximal inhibitory concentration (IC50) came out at 0.0135 µM.
Still for that read-out and setting: under `Cc1c(-c2nnc(C3CCCCCC3)o2)nc(-c2ccc(Cl)cc2Cl)n1-c1ccc(Cl)cc1` [Example 5, 2-(1-(4-Chlorophenyl)-2-(2,4-dichlorophenyl)-5-methyl-1H-imidazol-4-yl)-5-cycloheptyl-1,3,4-oxadiazole] stands 0.0276 µM; under `Clc1ccc(C2(c3nnc(-c4nc(-c5ccc(Cl)cc5Cl)n(-c5ccc(Br)cc5)c4Cn4cncn4)s3)CC2)cc1` [Example 167, 2-(5-((1H-1,2,4-Triazol-1-yl)methyl)-1-(4-bromophenyl)-2-(2,4-dichlorophenyl)-1H-imidazol-4-yl)-5-(1-(4-chlorophenyl)cyclopropyl)-1,3,4-thiadiazole], 0.00391 µM.
In the case of `Clc1ccc(C2(c3nnc(-c4nc(-c5ccc(Cl)cc5Cl)n(-c5ccc(Br)cc5)c4Cn4cncn4)o3)CC2)cc1` [Example 77, 2-(5-((1H-1,2,4-Triazol-1-yl)methyl)-1-(4-bromophenyl)-2-(2,4-dichlorophenyl)-1H-imidazol-4-yl)-5-(1-(4-chlorophenyl)cyclopropyl)-1,3,4-oxadiazole], the 50% inhibitory concentration (IC50) amounted to 0.00336 µM.
Still for that read-out and setting: under `CCc1sc(-c2nc(-c3ccc(Cl)cc3Cl)n(-c3ccc(Cl)cc3)c2C)nc1C` [Example 202, 2-(1-(4-Chlorophenyl)-2-(2,4-dichlorophenyl)-5-methyl-1H-imidazol-4-yl)-5-ethyl-4-methylthiazole] stands 0.0902 µM; under `CCc1oc(-c2nc(-c3ccc(Cl)cc3Cl)n(-c3ccc(Cl)cc3)c2C)nc1C` [Example 192, 2-(1-(4-Chlorophenyl)-2-(2,4-dichlorophenyl)-5-methyl-1H-imidazol-4-yl)-5-ethyl-4-methyloxazole], 0.0779 µM.
For `FC(F)(F)C1(c2nnc(-c3nc(-c4ccccc4Cl)n(-c4ccc(Br)cc4)c3Cn3cncn3)s2)CCC1` [Example 170, 2-(5-((1H-1,2,4-Triazol-1-yl)methyl)-1-(4-bromophenyl)-2-(2-chlorophenyl)-1H-imidazol-4-yl)-5-(1-(trifluoromethyl)cyclobutyl)-1,3,4-thiadiazole], the IC50 was 0.00175 µM.
`FC(F)(F)C1(c2nnc(-c3nc(-c4ccccc4Cl)n(-c4ccc(Br)cc4)c3Cn3cncn3)o2)CCC1` [Example 80, 2-(5-((1H-1,2,4-Triazol-1-yl)methyl)-1-(4-bromophenyl)-2-(2-chlorophenyl)-1H-imidazol-4-yl)-5-(1-(trifluoromethyl)cyclobutyl)-1,3,4-oxadiazole]: the IC50 was found to be 0.00336 µM.
`FC(F)(F)C1(c2nnc(-c3nc(-c4ccc(Cl)cc4Cl)n(-c4ccc(Cl)cc4)c3Cn3cncn3)o2)CC1` [Example 89, 2-(5-((1H-1,2,4-Triazol-1-yl)methyl)-1-(4-chlorophenyl)-2-(2,4-dichlorophenyl)-1H-imidazol-4-yl)-5-(1-(trifluoromethyl)cyclopropyl)-1,3,4-oxadiazole]: the half-inhibitory concentration (IC50) stood at 0.00114 µM.
Consider `CCc1c(-c2nnc(C3(c4ccc(C)cc4)CC3)s2)nc(-c2ccc(Cl)cc2Cl)n1-c1ccc(Br)cc1` [Example 133, 2-(1-(4-Bromophenyl)-2-(2,4-dichlorophenyl)-5-ethyl-1H-imidazol-4-yl)-5-(1-p-tolylcyclopropyl)-1,3,4-thiadiazole], for which the IC50 was determined as 0.00572 µM.
As for `Cc1c(-c2nnc(C(C)C)s2)nc(-c2ccc(Cl)cc2Cl)n1-c1ccc(Cl)cc1` [Example 98, 2-(1-(4-Chlorophenyl)-2-(2,4-dichlorophenyl)-5-methyl-1H-imidazol-4-yl)-5-isopropyl-1,3,4-thiadiazole], the half-inhibitory concentration (IC50) is 0.0222 µM.
As to `CCCCc1cnc(-c2nc(-c3ccc(Cl)cc3Cl)n(-c3ccc(Cl)cc3)c2C)s1` [Example 195, 5-Butyl-2-(1-(4-chlorophenyl)-2-(2,4-dichlorophenyl)-5-methyl-1H-imidazol-4-yl)thiazole], the 50% inhibitory concentration (IC50) turned out to be 0.0633 µM.
Take `CCc1c(-c2nnc(C3(c4ccc(Cl)cc4)CCC3)o2)nc(-c2ccc(Cl)cc2Cl)n1-c1ccc(Br)cc1` [Example 41, 2-(1-(4-Bromophenyl)-2-(2,4-dichlorophenyl)-5-ethyl-1H-imidazol-4-yl)-5-(1-(4-chlorophenyl)cyclobutyl)-1,3,4-oxadiazole]: the IC50 came out at 0.0136 µM.
Still for that read-out and setting: under `CCc1c(-c2ncc(C(C)(C)C)o2)nc(-c2ccc(Cl)cc2Cl)n1-c1ccc(Br)cc1` [Example 188, 2-(1-(4-Bromophenyl)-2-(2,4-dichlorophenyl)-5-ethyl-1H-imidazol-4-yl)-5-tert-butyloxazole] stands 0.00898 µM.

Values taken from patent US20080207705A1, “Heteroaryl-Imidazole Derivatives as Cannabinoid CB1 Receptor Antagonists” (Green Cross Corporation, priority 2007, published 2008).
